Square brackets hold non-standard residues; d marks the D form. Peptide text beside a SMILES is read from it. * marks the point of attachment. ξ: configuration not given here. NMe2Phe = CN(C)[C@@H](Cc1ccccc1)C(=O)*; NMeF = CN[C@@H](Cc1ccccc1)C(=O)O; Cha = N[C@@H](CC1CCCCC1)C(=O)O; ξTic = O=C(O)C1Cc2ccccc2CN1; NMeA = CN[C@@H](C)C(=O)O; dNMeA = CN[C@H](C)C(=O)O

Broadly, the Ki is a dissociation constant, usually derived from enzyme kinetics or from competition with a known ligand.

This test concerns the target T1, C5a Receptor (Homo sapiens, UniProt P21730).
T1 construct: 2.5-25 μg/mL of purified PMNL membrane fragments; from tissue; host or cells: polymorphonuclear leukocyte (PMNL) membrane fragments
T1 sequence (P21730 1-350): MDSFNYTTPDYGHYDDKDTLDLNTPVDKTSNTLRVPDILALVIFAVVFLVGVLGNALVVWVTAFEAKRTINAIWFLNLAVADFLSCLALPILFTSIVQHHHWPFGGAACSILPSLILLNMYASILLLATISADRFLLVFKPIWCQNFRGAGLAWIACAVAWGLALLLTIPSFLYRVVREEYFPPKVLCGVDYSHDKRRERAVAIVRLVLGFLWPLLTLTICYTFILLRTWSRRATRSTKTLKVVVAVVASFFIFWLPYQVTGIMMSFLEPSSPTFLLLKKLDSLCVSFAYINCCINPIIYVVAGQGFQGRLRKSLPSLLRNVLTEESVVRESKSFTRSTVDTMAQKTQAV
Description: Anaphylatoxin receptor binding Ki determination: inhibition of 125I-C5a binding to PMNL membrane fragments. Particulars: 0.03-1 nM 125I-C5a, 2.5-25 μg/mL purified PMNL membrane fragments, filtration; read-out: In vitro C5a Receptor Binding Potency Ki. How it is done: Specific inhibition of C5a binding activity of representative compounds of the present invention was measured using 0.03-1 nM ^125 I-C5a with 2.5-25 μg/mL of purified PMNL membrane fragments (Borregaard, N.; Heiple, J. M.; Simons, E. R.; and Clark, R. A. J. Cell. Biol. 1983, 97, 52-61.). Free and membrane-bound ligand were separated by filtration.

For the molecule `CC(C)C[C@H](NC(=O)[C@H](CCCNC(=N)N)NC(=O)[C@H](CC1CCCCC1)NC(=O)[C@H](C)NC(=O)[C@H](CCCCN)NC(=O)[C@@H](N)Cc1ccccc1)C(=O)N[C@H](C)C(=O)N[C@@H](CCCNC(=N)N)C(=O)O` [Example 432, H-Phenylalanyl-Lysyl-Alanyl-{(2S)-2-Amino-3-cyclohexylpropanoyl}-Arginyl-Leucyl-DAlanyl-Arginyl-OH] (H-FKA[Cha]RL[dA]R-OH), the inhibition constant Ki is 30 nM.
With `CC(C)C[C@H](NC(=O)CNC(=O)C1Cc2ccccc2CN1C(=O)[C@H](C)NC(=O)[C@H](CCCCN)NC(=O)[C@@H](N)Cc1ccccc1)C(=O)N[C@H](C)C(=O)N[C@@H](CCCNC(=N)N)C(=O)O` (some centres unmarked) [Example 445, H-Phenylalanyl-Lysyl-Alanyl-{(3R/S)-1,2,3,4-Tetrahydroisoquinolin-3-carbonyl}-Glycyl-Leucyl-DAlanyl-Arginyl-OH] (H-FKA[ξTic]GL[dA]R-OH), the inhibition constant Ki stood at 260 nM.
As for `CC(C)C[C@H](NC(=O)CNC(=O)[C@H](CC1CCCCC1)NC(=O)[C@H](C)N(C)C(=O)[C@H](CCCCN)NC(=O)[C@H](Cc1ccccc1)N(C)C)C(=O)N(C)[C@H](C)C(=O)N[C@@H](CCCNC(=N)N)C(=O)O` [Example 455, (N,N-di-Methyl)Phenylalanyl-Lysyl-(N-Methyl)Alanyl-{(2S)-2-Amino-3-cyclohexylpropanoyl}-Glycyl-Leucyl-(N-Methyl)DAlanyl-Arginyl-OH] (NMe2Phe-K[NMeA][Cha]GL[dNMeA]R-OH), the inhibition constant (Ki) was 17 nM.
The figure for `CN[C@@H](Cc1ccccc1)C(=O)N[C@@H](CCCCN)C(=O)N[C@@H](CCCNC(=N)N)C(=O)N[C@@H](CCSC)C(=O)N[C@@H](CCC(N)=O)C(=O)N[C@@H](CC(C)C)C(=O)NCC(=O)N[C@@H](CCCNC(=N)N)C(=O)O` [Example 460, (N-Methyl)Phenylalanyl-Lysyl-Arginyl-Methionyl-Glutaminyl-Leucyl-Glycyl-Arginyl-OH] (H-[NMeF]KRMQLGR-OH) is 21 nM; for “Ac-Histidyl-Lysyl-Aspartyl-{(2S)-2-Amino-3-cyclohexylpropanoyl}-{(2S)-2-Amino-3-cyclohexylpropanoyl}-Leucyl-Pipecolyl(±)-Arginyl-OH [Example 13]” it is 850 nM.

Source of the values: patent publication US5223485A, “Anaphylatoxin-receptor ligands” (Abbott Laboratories, priority 1991, dated 1993).
